# Assay results as given in patent US20220031654A1, “Standardized Bioflavonoid Composition for Regulation of Homeostasis of Host Defense Mechanism” (priority 2020, published 2022).
# Several values for one entry are separate records, joined by “and”; a condition that tells them apart may be missing. Identical values can stand only once.
# Assays:
# [1] = tested on: prostaglandin endoperoxide synthase; details: Kalkbrenner et al. 1992; read-out: IC50, inhibition of prostaglandin endoperoxide synthase; cited from earlier work
# [2] = tested on: cox-2 gene transcription in human colon cancer DLD-1 cells; details: Mutoh et al. 2000, read-out: IC50, suppression of cox-2 gene transcription; cited from earlier work
# COX-1 = details: (+)-catechin isolated from the bark of Ceiba pentandra; Noreen et al. 1998; read-out: IC50, COX-1 inhibition; cited from earlier work
# COX-2 = details: commercially available pure (+)-catechin; Noreen et al. 1998; cited from earlier work
# IL-1β = test: LPS-induced acute lung injury, serum IL-1β ELISA; assay type: in vivo, Sprague Dawley rats; details: UP446 250 mg/kg; SB 500 mg/kg
# Method: The presence of IL-10 in undiluted rat serum was measured using the Rat IL-10 Quantikine ELISA kit from RandD Systems (product #: RLB00) as follows: undiluted serum was added to a microplate coated with IL-1β antibody. […] The washing was repeated, and enzyme substrate was added to the plate.
# MIP-2/CINC-3 = test: LPS-induced acute lung injury, lung homogenate MIP-2/CINC-3 ELISA; details: UP446 250 mg/kg; SB 500 mg/kg
# Method: (§1) In this study, we treated Sprague Dawley rats with the test materials orally for 7 days before model induction with LPS. On the 8th day, an hour after oral treatment, LPS was instilled intratracheally (i.t.) at 10 mg/kg dissolved in 0.1 mL/100 g PBS to each rat. The normal control rats received the same volume i.t. of PBS only.
# We sacrificed surviving animals 24 hours after intratracheal LPS administration. At necropsy, the bronchoalveolar lavage (BAL) was collected by intratracheal injection of 1.5 mL PBS into the right lobe of the lung, followed by a gentle aspiration at least 3 times. Pooled, recovered fluid was centrifuged at 1,500 rpm for 10 min at 4° C., and was used to measure cytokines (e.g. IL-6) and pulmonary protein levels. This same right lobe was collected for tissue homogenization from each rat for MIP-2/CINC-3 activity analysis.
# The plate was subjected to 5 washes before an enzyme-linked polyclonal CINC-3 was added and allowed to bind for 2 hours. The wells were washed another 5 times before a substrate solution was added to the wells and the enzymatic reaction was allowed to commence for 30 minutes at room temperature protected from light. […] The absorbance of each well was read at 450 nm (with a 580 nm correction) and compared to a standard curve of CINC-3 in order to approximate the amount of CINC-3 in each rat lung homogenate sample.
# [3] = tested on: LPS-induced endotoxemia and sepsis; test: LPS-induced sepsis model, composition versus its constituents, Colby synergy; assay type: in vivo, CD-1 mice; details: for Mortality rate / Survival rate: SB 500, UP894-II 250, RM405 200, RM406 50 mg/kg
# Method: On the 8th day, mice were injected intraperitoneally (i.p.) with 25 mg/kg LPS dissolved in PBS at 10 mL/kg. Mice in the UP894-II-treated group received a daily dose of UP894-II at 250 mg/kg. All mice continued to receive the treatment daily for the duration of study, which was completed on the 6th day post LPS injection. Following a median lethal dose of LPS (25 mg/kg) by i.p. administration, animals are expected to develop sepsis within a few hours. If untreated, mice would start to die within 24 hours. Animals were observed hourly. In the current study, we monitored the mice for 6 days after LPS injection.
# For the blending of these plant extracts to have unexpected synergy, the observed inhibition needs to be greater than the calculated value.
# The survival rate was calculated as: 100-[(deceased mice/total number of mice)×100]%. *p≤0.05
# [4] = tested on: LPS-induced acute lung injury; test: LPS-induced acute lung injury, lung histopathology (H&E); assay type: in vivo, Sprague Dawley rats
# Method: The severity of lung damage as a result of intratracheal LPS was assessed using HandE-stained lung tissue. The left lobe of the lung was used for the histopathology analysis.
# CRP = details: UP446 250 mg/kg; SB 500 mg/kg
# Method: as §1
# We sacrificed surviving animals 24 hours after intratracheal LPS administration. At necropsy, the bronchoalveolar lavage (BAL) was collected by intratracheal injection of 1.5 mL PBS into the right lobe of the lung, followed by a gentle aspiration at least 3 times. Pooled, recovered fluid was centrifuged at 1,500 rpm for 10 min at 4° C., and was used to measure cytokines (e.g. IL-6) and pulmonary protein levels.
# The presence of CRP in rat BAL diluted 1:1,000 was measured using the C-Reactive Protein (PTX1) Rat ELISA kit from Abcam (product #: ab108827) as follows: 1:1,000 diluted BAL was added to a microplate coated with CRP antibody. After 2 hours on a plate shaker at room temperature, CRP in BAL was bound to the plate and the plate was thoroughly washed. […] After developing for 10 minutes at room temperature, a stop solution was added, and the absorbance was read at 450 nm. The concentration of CRP was calculated based on the absorbance readings of an CRP standard curve.
# [5] = tested on: LPS-induced endotoxemia and sepsis; test: LPS-induced sepsis model, survival (UP446 study); assay type: in vivo, CD-1 mice; details: UP446 250 mg/kg, Sodium Butyrate 500 mg/kg oral
# Method: CD-1 mice and Sprague Dawley rats were purchased from a USDA approved vendor. Eight weeks old male CD-1 mice and SD rats were purchased form Charles River Laboratories, Inc. (Wilmington, Mass.). Animals were acclimated upon arrival and used for the study. They were housed in a temperature-controlled room (71-72° F.) on a 12-hour light-dark cycle and provided with feed and water ad libitum.
# This model used survival rate of animals as the end point measurement (Wang et al., 1999). Lipopolysaccharide (LPS) is an integral component of the outer membrane of gram-negative bacteria and a major contributing factor in the initiation of a generalized inflammatory process that may lead to endotoxin shock. It is a state mediated principally by macrophages/monocytes and is attributed to excessive production of several early phase cytokines such as TNF-α, IL-1, IL-6 and gamma interferon (IFN-γ) as well as a late-stage mediator, HMGB1. Following a median lethal dose of LPS (25 mg/kg) administration dissolved in phosphate-buffered saline (PBS; Lifeline, Lot #07641), animals develop endotoxemia and HMGB1 would be detected in the serum at 8 hours and reach to a peak and plateau levels from 16 to 32 hours after LPS. […] In the current study, we monitored the mice for 4 days after LPS injection. […]
# The survival rate was calculated as: 100-[(deceased mice/total number of mice)×100]%.
# TNF-α = test: LPS-induced acute lung injury, serum TNF-α ELISA; assay type: in vivo, Sprague Dawley rats; details: UP446 250 mg/kg; SB 500 mg/kg
# Method: The presence of TNF-α in undiluted rat serum was measured using the rat TNF-α Quantikine ELISA kit from RandD Systems (product #: RTA00) as follows: undiluted serum was added to a microplate coated with TNF-α antibody. […] The washing was repeated, and enzyme substrate was added to the plate.
# Pseudomonas aeruginosa [6] = test: Hyperoxia plus PA infection, bacterial load in the airways; details: RES 50 mg/kg, UP446 250 mg/kg; hyperoxia and PA
# Method: To investigate the effects of regulating natural host defense homeostasis, mice were treated with the bioflavonoid composition, UP446, at 250 mg/kg orally for seven days prior to being exposed to >90% oxygen for 48 hours (with continued UP446 treatment) before being inoculated with microbial Pseudomonas aeruginosa (PA).
# HMGB1 = test: Hyperoxia plus PA infection, extracellular HMGB1 in lung lavage fluids; assay type: in vivo, mice; details: RES 50 mg/kg, UP446 250 mg/kg
# Source text: Accumulation of extracellular HMGB1 in the airways can compromise innate immunity, leading to an impaired ability to clear invading pathogens and apoptotic neutrophils. This can subsequently cause acute respiratory tract infections, lung injury and even death (Entezari et al., 2012; Patel et al., 2013). To determine whether UP446-attenuated acute lung injury in bacterially infected mice exposed to hyperoxia is due to its impact on the accumulation of extracellular HMGB1 in the airways, the levels of HMGB1 were measured in the lung lavage fluids. As shown previously, prolonged exposure of these mice to hyperoxia followed by microbial infection increased the accumulation of HMGB1 in the airways. […] This elevation can be reduced by pretreatment with either resveratrol (RES) or UP446. […] This correlates with the significant enhanced ability of UP446 to improve host defense mechanisms against microbial infection in the respiratory system.
# BAL total protein = test: Hyperoxia plus PA infection, total protein in lung lavage fluid; details: RES 50 mg/kg, UP446 250 mg/kg; >90% oxygen 48 hours, 24 hours after PA
# Method: To investigate the effects of regulating natural host defense homeostasis, mice were treated with the bioflavonoid composition, UP446, at 250 mg/kg orally for seven days prior to being exposed to >90% oxygen for 48 hours (with continued UP446 treatment) before being inoculated with microbial Pseudomonas aeruginosa (PA). Mice were euthanized 24 hours after bacterial inoculation, the lungs were lavaged, and total protein content was determined from the lung lavage fluid.
# Pseudomonas aeruginosa [7] = test: Hyperoxia plus PA infection, bacterial load in lung homogenate; assay type: in vivo, mice; details: RES 50 mg/kg, UP446 250 mg/kg; hyperoxia and PA
# [8] = 144 hr post LPS (end of observation)
smiles,measurement,setting,value
Oc1cc(O)c2c(c1)OC(c1ccc(O)c(O)c1)C(O)C2 (stereo not shown) [Catechin],IC50,[1],40 µM
same,IC50,[2],415 µM
same,IC50,COX-1,80 µM
same,selectivity for COX-2,COX-2,no selectivity for COX-2
CCCC(=O)[O-].[Na+] [Sodium Butyrate],reduction in serum IL-1β level (printed IL-10 for UP446),IL-1β,65.3%
same,reduction in lung homogenate CINC-3 level vs vehicle,MIP-2/CINC-3,17.7%
same,Mortality rate,[3]; 24 hr post LPS,15.38%
same,Survival rate,[3]; 24 hr post LPS,84.6%
same,Mortality rate,[3]; 36 hr post LPS,46.15%
same,Survival rate,"[3]; 36 hr post LPS, listed as SB",53.9% and 53.8%
same,Mortality rate,[3]; 48 hr post LPS,53.85%
same,Survival rate,[3]; 48 hr post LPS,46.2%
same,Mortality rate,[3]; 60 hr post LPS,61.54%
same,Survival rate,[3]; 60 hr post LPS,38.5%
same,Mortality rate,[3]; 72 hr post LPS,61.54%
same,Survival rate,"[3]; 72 hr post LPS, listed as SB",38.5%
same,Mortality rate,[3]; 96 hr post LPS,69.23%
same,Survival rate,[3]; 96 hr post LPS,30.8%
same,Mortality rate,[3]; 120 hr post LPS,69.23%
same,Survival rate,[3]; 120 hr post LPS,30.8%
same,Mortality rate,[3]; [8],69.23%
same,Survival rate,[3]; [8],30.8%
same,Mortality rate,[3],0.00%
same,Survival rate,[3],100.0%
same,Deceased (total),"[3]; up to 144 hours post LPS, N=13",9
same,Survived (total),"[3]; up to 144 hours post LPS, N=13",4
same,changes in the histopathology evaluation relative to vehicle,"[4]; SB 500 mg/kg, UP446 low-dose 125 mg/kg",minimal changes
same,Overall Lung Damage Severity,"[4]; Score 0-4, UP446 high dose 250 mg/kg, Sodium Butyrate 500 mg/kg",3.05 ± 0.42
same,Infiltration of PMN cell,"[4]; scores 0-4, UP446 high dose 250 mg/kg, Sodium Butyrate 500 mg/kg",2.75 ± 0.78
same,reduction of BAL CRP level relative to vehicle,CRP,moderate reduction in CRP level without statistical significance
same,Survival Rate (%) after 82 hr,[5],50%
same,reduction in serum TNF-α level against the vehicle control,TNF-α,67.9%
"Oc1ccc(C=Cc2cc(O)cc(O)c2)cc1 [RES, resveratrol]",bacterial load in the airways (Mean ± SD),Pseudomonas aeruginosa [6],2.4 ± 0.6 ×10^5 CFU/mL
same,reduction in the level of HMGB1 expression vs vehicle-treated hyperoxia and infection,HMGB1,74.9%
same,HMGB1 expression in airways (Mean ± SD),"HMGB1; densitometry arbitrary unit, hyperoxia and PA",29.2 ± 16.5 AU
same,BAL Total protein content (Mean ± SE),BAL total protein,526.0 ± 15.5 µg/mL
same,bacterial load in lung homogenate (Mean ± SD),Pseudomonas aeruginosa [7],0.02 ± 0.02 ×10^5 CFU/mL
